The numbers were not newly measured in patent US8444622B2, “Device, system, and method for targeted delivery of anti-inflammatory medicaments to a mammalian subject” (The Invention Science Fund I, LLC, priority 2009, dated 2013), which cites them from elsewhere.

Molecules are shown by their SMILES.

On to `COc1ccc2cc([C@H](C)C(=O)O)ccc2c1` [naproxen], for which the “elimination from synovial fluid” value (appreciable drug concentrations may still be measurable after 24 hours) is listed as “slow”. Moreover, the “time to steady-state in synovial fluid” value (once daily dosing of naproxen sodium) is “within a week”. In addition, the “predicted accumulation ratio based on trough concentration” value (synovial fluid, once daily dosing of naproxen sodium) is 2.4.
